The source of these data is ChEMBL document CHEMBL1697731, “Cheminformatics analysis of assertions mined from literature that describe drug-induced liver injury in different species” (Chem Res Toxicol, 2010).

Data set [1] concerns Hepatotoxicity. Nature of the data set: Literature-mined compound from Fourches et al multi-species drug-induced liver injury (DILI) dataset, effect in rodents. The note with it: rodentia.
Data set [2] deals with Hepatotoxicity. Nature of the data set: Literature-mined compound from Fourches et al multi-species drug-induced liver injury (DILI) dataset, effect in humans. The following applies: human.
The subject of data set [3] is Hepatotoxicity. Briefly: Literature-mined compound from Fourches et al multi-species drug-induced liver injury (DILI) dataset, effect in non-rodents.

`[H]/N=C(/N)N[C@H]1[C@H](O)[C@@H](O)[C@H](O[C@@H]2O[C@@H](C)[C@](O)(C=O)[C@H]2O[C@@H]2O[C@@H](CO)[C@H](O)[C@@H](O)[C@@H]2NC)[C@@H](N/C(N)=N\[H])[C@@H]1O` [STREPTOMYCIN]: the Hepatotoxicity result in the data set on Hepatotoxicity [1] (Liver), in the data set with Hepatotoxicity [2] (Liver) and in the data set on Hepatotoxicity [3] (Liver) was “drug-induced liver injury reported” in each case.
As to `CN(N=O)C(=O)N[C@@H](C=O)[C@@H](O)[C@H](O)[C@H](O)CO` [STREPTOZOCIN], the Hepatotoxicity entry in the data set on Hepatotoxicity [1] was “drug-induced liver injury reported”; with Hepatotoxicity [2], “no drug-induced liver injury reported”; in the data set with Hepatotoxicity [3], “drug-induced liver injury reported”.
On to `OC[C@H]1O[C@@](CO)(O[C@H]2O[C@H](CO)[C@@H](O)[C@H](O)[C@H]2O)[C@@H](O)[C@@H]1O` [SUCROSE], for which the Hepatotoxicity entry with Hepatotoxicity [1] is “drug-induced liver injury reported”; in the data set with Hepatotoxicity [2], “no drug-induced liver injury reported”; in the data set with Hepatotoxicity [3], “drug-induced liver injury reported”.
Take `CC1(C)[C@H](C(=O)O)N2C(=O)C[C@H]2S1(=O)=O` [SULBACTAM]: the Hepatotoxicity entry is given as “no drug-induced liver injury reported” in the data set with Hepatotoxicity [1], “drug-induced liver injury reported” in the data set on Hepatotoxicity [2] and “no drug-induced liver injury reported” in the data set on Hepatotoxicity [3].
As to `Nc1ccc(S(=O)(=O)Nc2ncccn2)cc1` [SULFADIAZINE], the Hepatotoxicity result is “no drug-induced liver injury reported” with Hepatotoxicity [1] (Liver), “drug-induced liver injury reported” in the data set on Hepatotoxicity [2] (Liver) and “no drug-induced liver injury reported” with Hepatotoxicity [3] (Liver).
`COc1cc(NS(=O)(=O)c2ccc(N)cc2)nc(OC)n1` [SULFADIMETHOXINE]: the Hepatotoxicity result in the data set with Hepatotoxicity [1] is recorded as “no drug-induced liver injury reported”; with Hepatotoxicity [2], “drug-induced liver injury reported”; in the data set on Hepatotoxicity [3], “no drug-induced liver injury reported”.
On to `COc1ncnc(NS(=O)(=O)c2ccc(N)cc2)c1OC` [SULFADOXINE], for which the Hepatotoxicity entry in the data set with Hepatotoxicity [1] was “no drug-induced liver injury reported”; with Hepatotoxicity [2], “no drug-induced liver injury reported”; with Hepatotoxicity [3] it was “drug-induced liver injury reported”.
As to `Cc1ccnc(NS(=O)(=O)c2ccc(N)cc2)n1` [SULFAMERAZINE], the Hepatotoxicity result with Hepatotoxicity [1] is “drug-induced liver injury reported”; in the data set with Hepatotoxicity [2] it was “no drug-induced liver injury reported”; in the data set on Hepatotoxicity [3], “no drug-induced liver injury reported”.
As for `Cc1cc(C)nc(NS(=O)(=O)c2ccc(N)cc2)n1` [SULFAMETHAZINE], the Hepatotoxicity entry in the data set on Hepatotoxicity [1] is on record as “drug-induced liver injury reported”; with Hepatotoxicity [2], “drug-induced liver injury reported”; in the data set on Hepatotoxicity [3] it was “no drug-induced liver injury reported”.
For the compound `Cc1nnc(NS(=O)(=O)c2ccc(N)cc2)s1` [SULFAMETHIZOLE], the values for the Hepatotoxicity entry with Hepatotoxicity [1], with Hepatotoxicity [2] and in the data set with Hepatotoxicity [3] were “no drug-induced liver injury reported”, “drug-induced liver injury reported” and “no drug-induced liver injury reported”, respectively.
Consider `Cc1cc(NS(=O)(=O)c2ccc(N)cc2)no1` [SULFAMETHOXAZOLE], for which the Hepatotoxicity result with Hepatotoxicity [1] (Liver) is “no drug-induced liver injury reported”; in the data set with Hepatotoxicity [2] (Liver) it was “drug-induced liver injury reported”; in the data set with Hepatotoxicity [3] (Liver), “no drug-induced liver injury reported”.
For `Nc1ccc(S(N)(=O)=O)cc1` [SULFANILAMIDE], the values for the Hepatotoxicity entry in the data set on Hepatotoxicity [1] (Liver), in the data set on Hepatotoxicity [2] (Liver) and in the data set on Hepatotoxicity [3] (Liver) were “no drug-induced liver injury reported”, “drug-induced liver injury reported” and “no drug-induced liver injury reported”, respectively.
As for `Nc1ccc(S(=O)(=O)Nc2ccnn2-c2ccccc2)cc1` [SULFAPHENAZOLE], the figures for the Hepatotoxicity entry in the data set with Hepatotoxicity [1], in the data set on Hepatotoxicity [2] and in the data set with Hepatotoxicity [3] were “drug-induced liver injury reported”, “drug-induced liver injury reported” and “no drug-induced liver injury reported”, respectively.
Take `Nc1ccc(S(=O)(=O)Nc2ccccn2)cc1` [SULFAPYRIDINE]: the Hepatotoxicity result is given as “drug-induced liver injury reported” in the data set with Hepatotoxicity [1], “no drug-induced liver injury reported” in the data set with Hepatotoxicity [2] and “no drug-induced liver injury reported” in the data set with Hepatotoxicity [3].
Regarding `O=C(O)c1cc(/N=N/c2ccc(S(=O)(=O)Nc3ccccn3)cc2)ccc1O` [SULFASALAZINE], the Hepatotoxicity result in the data set with Hepatotoxicity [1] is listed as “drug-induced liver injury reported”; with Hepatotoxicity [2], “drug-induced liver injury reported”; in the data set on Hepatotoxicity [3], “no drug-induced liver injury reported”.
As for `O=C1C(CC[S+]([O-])c2ccccc2)C(=O)N(c2ccccc2)N1c1ccccc1` (stereo not given) [SULFINPYRAZONE], the Hepatotoxicity entry is given as “no drug-induced liver injury reported” with Hepatotoxicity [1], “drug-induced liver injury reported” with Hepatotoxicity [2] and “no drug-induced liver injury reported” in the data set with Hepatotoxicity [3].
Take `CCCCCCCCNC(C)C(O)c1ccc(SC(C)C)cc1` (stereo not given) [SULOCTIDIL]: the Hepatotoxicity result in the data set with Hepatotoxicity [1] is “no drug-induced liver injury reported”; in the data set on Hepatotoxicity [2], “drug-induced liver injury reported”; in the data set on Hepatotoxicity [3] it was “no drug-induced liver injury reported”.
Turning to `CCN1CCCC1CNC(=O)c1cc(S(N)(=O)=O)ccc1OC` (stereo not given) [SULPIRIDE], the results for the Hepatotoxicity result in the data set with Hepatotoxicity [1], in the data set on Hepatotoxicity [2] and in the data set with Hepatotoxicity [3] were “no drug-induced liver injury reported”, “drug-induced liver injury reported” and “drug-induced liver injury reported”, respectively.
In the case of `CC(C(=O)O)c1ccc(C(=O)c2cccs2)cc1` (stereo not given) [SUPROFEN], the Hepatotoxicity result is on record as “no drug-induced liver injury reported” in the data set with Hepatotoxicity [1], “drug-induced liver injury reported” in the data set on Hepatotoxicity [2] and “no drug-induced liver injury reported” with Hepatotoxicity [3].
As for `Cc1ccc(C(=O)Nc2ccc(S(=O)(=O)O)c3cc(S(=O)(=O)O)cc(S(=O)(=O)O)c23)cc1NC(=O)c1cccc(NC(=O)Nc2cccc(C(=O)Nc3cc(C(=O)Nc4ccc(S(=O)(=O)O)c5cc(S(=O)(=O)O)cc(S(=O)(=O)O)c45)ccc3C)c2)c1` [SURAMIN], the Hepatotoxicity entry with Hepatotoxicity [1], with Hepatotoxicity [2] and in the data set with Hepatotoxicity [3] was “drug-induced liver injury reported” in each case.
In the case of `Cl.Nc1c2c(nc3ccccc13)CCCC2` [TACRINE HYDROCHLORIDE], the Hepatotoxicity entry is listed as “drug-induced liver injury reported” in the data set on Hepatotoxicity [1] (Liver), “no drug-induced liver injury reported” with Hepatotoxicity [2] (Liver) and “no drug-induced liver injury reported” in the data set on Hepatotoxicity [3] (Liver).
Consider `C=CC[C@@H]1/C=C(\C)C[C@H](C)C[C@H](OC)[C@H]2O[C@@](O)(C(=O)C(=O)N3CCCC[C@H]3C(=O)O[C@H](/C(C)=C/[C@@H]3CC[C@@H](O)[C@H](OC)C3)[C@H](C)[C@@H](O)CC1=O)[C@H](C)C[C@@H]2OC` [TACROLIMUS ANHYDROUS], for which the Hepatotoxicity entry in the data set on Hepatotoxicity [1] is on record as “drug-induced liver injury reported”; in the data set on Hepatotoxicity [2], “drug-induced liver injury reported”; in the data set with Hepatotoxicity [3] it was “no drug-induced liver injury reported”.
With `O=C(OC[C@H]1O[C@@H](OC(=O)c2cc(O)c(O)c(OC(=O)c3cc(O)c(O)c(O)c3)c2)[C@H](OC(=O)c2cc(O)c(O)c(OC(=O)c3cc(O)c(O)c(O)c3)c2)[C@@H](OC(=O)c2cc(O)c(O)c(OC(=O)c3cc(O)c(O)c(O)c3)c2)[C@@H]1OC(=O)c1cc(O)c(O)c(OC(=O)c2cc(O)c(O)c(O)c2)c1)c1cc(O)c(O)c(OC(=O)c2cc(O)c(O)c(O)c2)c1` [TANNIC ACID], the Hepatotoxicity entry with Hepatotoxicity [1] is on record as “drug-induced liver injury reported”; in the data set on Hepatotoxicity [2], “no drug-induced liver injury reported”; in the data set on Hepatotoxicity [3], “drug-induced liver injury reported”.
For the compound `O=c1[nH]c(=O)n(C2CCCO2)cc1F` (stereo not given) [TEGAFUR], the results for the Hepatotoxicity result in the data set with Hepatotoxicity [1], in the data set on Hepatotoxicity [2] and with Hepatotoxicity [3] were “no drug-induced liver injury reported”, “drug-induced liver injury reported” and “no drug-induced liver injury reported”, respectively.
Turning to `CC[C@H]1OC(=O)[C@H](C)C(=O)[C@H](C)[C@@H](O[C@@H]2O[C@H](C)C[C@H](N(C)C)[C@H]2O)[C@](C)(OC)C[C@@H](C)C(=O)[C@H](C)[C@H]2N(CCCCn3cnc(-c4cccnc4)c3)C(=O)O[C@]12C` [TELITHROMYCIN], the results for the Hepatotoxicity result with Hepatotoxicity [1] (Liver), in the data set on Hepatotoxicity [2] (Liver) and in the data set with Hepatotoxicity [3] (Liver) were “drug-induced liver injury reported”, “drug-induced liver injury reported” and “no drug-induced liver injury reported”, respectively.
`Cn1nnc2c(C(N)=O)ncn2c1=O` [TEMOZOLOMIDE]: the Hepatotoxicity result in the data set with Hepatotoxicity [1] is on record as “no drug-induced liver injury reported”; in the data set with Hepatotoxicity [2] it was “drug-induced liver injury reported”; in the data set on Hepatotoxicity [3], “no drug-induced liver injury reported”.
Turning to `COc1cc([C@@H]2c3cc4c(cc3[C@@H](O[C@@H]3O[C@@H]5CO[C@@H](c6cccs6)O[C@H]5[C@H](O)[C@H]3O)[C@H]3COC(=O)[C@H]23)OCO4)cc(OC)c1O` [TENIPOSIDE], the values for the Hepatotoxicity result with Hepatotoxicity [1], in the data set on Hepatotoxicity [2] and with Hepatotoxicity [3] were “drug-induced liver injury reported”, “no drug-induced liver injury reported” and “no drug-induced liver injury reported”, respectively.
As to `C[C@H](Cn1cnc2c(N)ncnc21)OCP(=O)(O)O` [TENOFOVIR ANHYDROUS], the Hepatotoxicity entry was “no drug-induced liver injury reported” with Hepatotoxicity [1], “drug-induced liver injury reported” in the data set with Hepatotoxicity [2] and “no drug-induced liver injury reported” in the data set on Hepatotoxicity [3].
For the compound `CN1C(C(=O)Nc2ccccn2)=C(O)c2sccc2S1(=O)=O` [TENOXICAM], the values for the Hepatotoxicity entry in the data set on Hepatotoxicity [1] (Liver), in the data set on Hepatotoxicity [2] (Liver) and with Hepatotoxicity [3] (Liver) were “no drug-induced liver injury reported”, “drug-induced liver injury reported” and “no drug-induced liver injury reported”, respectively.
For `CN(C/C=C/C#CC(C)(C)C)Cc1cccc2ccccc12` [TERBINAFINE], the Hepatotoxicity entry in the data set on Hepatotoxicity [1] is on record as “drug-induced liver injury reported”; in the data set with Hepatotoxicity [2], “drug-induced liver injury reported”; in the data set on Hepatotoxicity [3], “no drug-induced liver injury reported”.
